This is an account of results in PubChem BioAssay (NCI).

SMILES strings stand for the structures.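 The compound was tested at five concentrations on cells cultured in 96-well plates, with a 48-hour exposure period. Here, GI50 denotes the concentration required for 50% inhibition of growth. TGI: total growth inhibition.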 Some results are limits rather than exact numbers.

What all share (assay): DTP human tumour cell line panel, 48 h
Assay [1] relates to MOLT-4 leukemia.
Assay [2] relates to SF-268 CNS.
Assay [3] relates to M14 melanoma.
Assay [4] has as its system CAKI-1 renal.
Assay [5] relates to SF-295 CNS.
The test system of assay [6] is UACC-62 melanoma.
The subject of assay [7] is HCT-116 colon.
In assay [8] the test system is COLO 205 colon.
The test system of assay [9] is K-562 leukemia.
Assay [10] deals with KM12 colon.

As to `O=[N+]([O-])c1ccc(Br)c([N+](=O)[O-])c1`, the GI50 in assay [1] is 2.52 µM; in [2], 1.93 µM; in assay [3] it was 1.74 µM; in assay [4], 0.406 µM; in [5], 2.38 µM; in assay [6] it was 2.56 µM. The GI50 in assay [7] was 2.09 µM; in [8], 1.72 µM; in assay [9], 1.98 µM; in [10] it was 1.8 µM. Further, the TGI is 6.71 µM in [1]; 3.94 µM in assay [2]; 3.27 µM in assay [3]; 0.954 µM in assay [4]; 5.96 µM in [5]; 6.87 µM in [6]. The TGI is 5.02 µM in assay [7], 3.32 µM in [8], over 23.5 µM in assay [9] and 3.23 µM in assay [10].
Consider `COc1cc(/C=C2/C(=O)N(C(=O)OC(C)C)C(Cc3cc(OC)c(OC)c(C)c3OC)C(=O)N2Cc2ccccc2)c(OC)c(C)c1OC` (centres undefined), for which the TGI in assay [1] is 44.1 µM; in assay [2], over 100 µM; in assay [3] it was over 100 µM; in assay [4], over 100 µM; in assay [5], over 100 µM; in assay [6], over 100 µM. The total growth inhibition concentration (TGI) in assay [7], in [8], in assay [9] and in [10] was over 100 µM throughout.
For the compound `Cc1ccc(NC(=O)C(=O)C2C(=O)N(c3ccccc3)N=C2N)cc1C` (centres undefined), the TGI in [1], in assay [2], in assay [3], in assay [4], in assay [5] and in assay [6] was over 100 µM in each case. Besides, the TGI in assay [7], in assay [8], in [9] and in assay [10] was over 100 µM throughout.
As for `N#C/C(=C\c1ccc(-c2ccc(Cl)cc2)o1)C(=O)Nc1ncc(Cc2ccc(Cl)cc2)s1`, the GI50 in assay [1] is 3.75 µM; in assay [2], 2.68 µM; in assay [3], 2.04 µM; in assay [4], 1.63 µM; in assay [5], 2.84 µM; in assay [6], 2.11 µM. The GI50 in assay [7] was 1.41 µM; in assay [8], 2.45 µM; in assay [9], 3.92 µM; in assay [10], 1.83 µM. Also, the TGI in [1] was over 100 µM; in assay [2], 19.8 µM; in assay [3], 6.08 µM; in [4], 3.46 µM; in [5], 8.73 µM; in [6] it was 6.57 µM. Also, the TGI in assay [7] is 3.51 µM; in assay [8], 7.39 µM; in [9] it was over 100 µM; in assay [10], 6.56 µM.
For the compound `Oc1ccc(-c2nnc3sc(-c4ccc(F)c(Oc5ccccc5)c4)nn23)cc1`, the GI50 in assay [1] is 22.2 µM; in assay [2], 18 µM; in assay [3] it was 43.6 µM; in [4], 20.8 µM; in [5] it was 23.2 µM; in assay [6], 19.8 µM. Besides, the GI50 was 23.5 µM in assay [7], 96 µM in assay [8], over 100 µM in assay [9] and 45.7 µM in assay [10]. Further, the TGI in assay [1] was over 100 µM; in [2], 53.2 µM; in [3], over 100 µM; in assay [4], 80.6 µM; in assay [5], 59.9 µM; in assay [6], 66.8 µM. The TGI in assay [7], in assay [8], in assay [9] and in assay [10] was over 100 µM each time.
As to `O=C1NN(c2ccc(C(=O)O)cc2)C(=O)/C1=C\c1ccc([N+](=O)[O-])o1`, the GI50 in assay [1] is 33.4 µM; in [2], 61.2 µM; in assay [3] it was 28.6 µM; in assay [4], 16.1 µM; in [5], over 100 µM; in [6], 62 µM. The GI50 in assay [7] was 20.8 µM; in assay [8], 20.9 µM; in assay [9] it was 27.3 µM; in [10], over 100 µM. For the same compound, the TGI in assay [1] was over 100 µM; in [2], over 100 µM; in [3], 88 µM; in [4], 31.1 µM; in assay [5], over 100 µM; in assay [6] it was over 100 µM. Further, the TGI was 42.8 µM in assay [7], 38.8 µM in [8], 72.1 µM in assay [9] and over 100 µM in [10].
Take `CCOC(=O)C12CCCC1(O)N(NC(=O)c1ccccc1)C(C)=C2C(=O)OC` (centres undefined): the TGI in [1], in [2], in assay [3], in assay [4], in assay [5] and in [6] was over 100 µM in each case. The TGI in assay [7], in assay [8], in [9] and in assay [10] was over 100 µM throughout.
With `CCOc1c(Br)cc(C2C(C(=O)OC)=CN(C)C=C2C(=O)OC)cc1OC`, the GI50 was 38.9 µM in [1]; over 100 µM in [2]; 64.1 µM in assay [3]; 44.3 µM in assay [4]; 57.9 µM in assay [5]; 50.2 µM in [6]. Also, the GI50 in assay [7] is 48.3 µM; in assay [8], 99.2 µM; in assay [9], 50.6 µM; in assay [10], 38.6 µM. The TGI in assay [1], in [2], in [3], in assay [4], in assay [5] and in assay [6] was over 100 µM throughout. Further, the TGI in [7], in [8], in [9] and in assay [10] was over 100 µM throughout.
With `Cn1cc(-c2nc(-c3c[nH]c4ncccc34)cs2)c2cc(F)ccc21`, the GI50 is 3.16 µM in assay [1]; 3.32 µM in [2]; 2.93 µM in assay [3]; 2.2 µM in [4]; 2.18 µM in assay [5]; 3.65 µM in assay [6]. The GI50 in assay [7] is 2.56 µM; in assay [8], 2.69 µM; in assay [9], 2.19 µM; in assay [10], 0.83 µM. Besides, the TGI in assay [1] was 17 µM; in assay [2], 22.5 µM; in [3], 9.74 µM; in [4], 8.44 µM; in [5], 6.93 µM; in assay [6], 17.2 µM. Moreover, the TGI in assay [7] is 7.22 µM; in assay [8], 8.52 µM; in assay [9] it was over 22.9 µM; in assay [10], 5.16 µM.
In the case of `Cn1cc(C2=C(c3cccc4ccccc34)C(=O)NC2=O)c2ccccc21`, the GI50 in assay [1] was 7.9 µM; in [2], 9.17 µM; in [3] it was 11.5 µM; in assay [4] it was 5.31 µM; in assay [5] it was 8.26 µM; in assay [6], 8.33 µM. For the same compound, the GI50 in [7] was 5.92 µM; in assay [8] it was 7.23 µM; in assay [9] it was 10.3 µM; in [10] it was 7.3 µM. For the same compound, the TGI was over 22.5 µM in [1]; over 25 µM in [2]; over 25 µM in assay [3]; over 22.9 µM in assay [4]; over 23.1 µM in [5]; over 25 µM in assay [6]. Also, the TGI in assay [7] is over 16.7 µM; in assay [8], over 22.9 µM; in [9], over 25 µM; in [10], over 22.6 µM.
Turning to `COc1cccc(C2c3cc4c(cc3OC(C)(O)C2C)OCO4)c1O` (centres undefined), the TGI in assay [1] was over 66.2 µM; in assay [2] it was over 100 µM; in [3] it was 24.2 µM; in assay [4] it was 15.7 µM; in assay [5], 14.1 µM; in assay [6], 31.1 µM. In addition, the TGI stood at 19.7 µM in assay [7], 6.15 µM in assay [8], 36.9 µM in [9] and 36.6 µM in [10].
Take `CC1=CC(=NC(=O)CBr)C=C/C1=N\S(=O)(=O)c1ccccc1`: the GI50 was 2.75 µM in assay [1]; 3.69 µM in [2]; 3.26 µM in assay [3]; 3.11 µM in [4]; 15.8 µM in assay [5]; 2.58 µM in [6]. Moreover, the GI50 in assay [7] was 2.05 µM; in assay [8], 5.96 µM; in assay [9], 2.54 µM; in assay [10] it was 16.8 µM. The TGI in assay [1] was found to be 9.65 µM; in assay [2] it was 13.7 µM; in assay [3], 13.9 µM; in assay [4], 11.4 µM; in assay [5] it was 33.1 µM; in assay [6], 10.7 µM. The TGI in assay [7] stood at 4.97 µM; in assay [8], 21.2 µM; in [9], 6.44 µM; in [10], 31.2 µM.
Regarding `Oc1ccccc1-c1nn(CNc2cccc(Cl)c2)c(=S)o1`, the TGI in [1], in assay [2], in assay [3], in [4], in assay [5] and in assay [6] was over 100 µM in each case. Also, the TGI in [7], in assay [8], in [9] and in assay [10] was over 100 µM in each case. For the same compound, the GI50 is 59.4 µM in [2]; 35.8 µM in assay [3]; 65.4 µM in assay [4]; over 100 µM in assay [5]; 41.5 µM in assay [6]; 25.3 µM in assay [7]. The figures for the GI50 in [8], in [9] and in [10] were 53.8 µM, 38.4 µM and 37.2 µM, respectively.
Regarding `CCOC12OC3=C(CC1CC1=C(CCC1=O)O2)C(=O)CC3` (centres undefined), the TGI in [1], in assay [2], in assay [3], in assay [4], in assay [5] and in assay [6] was over 100 µM throughout. For the same compound, the TGI in assay [7], in [8], in assay [9] and in assay [10] was over 100 µM throughout.
With `Cn1nccc1Nc1nccc(-c2cc3c(s2)C(C)(C)N(CCN2CCOCC2)C3=O)n1`, the GI50 was 25.7 µM in assay [1]; 27.8 µM in [2]; 0.312 µM in assay [3]; 6.66 µM in assay [4]; over 89.9 µM in assay [5]; 0.274 µM in assay [6]. The GI50 was 0.594 µM in assay [7], 0.159 µM in assay [8], 11.7 µM in [9] and 7.86 µM in assay [10]. In addition, the TGI in assay [1] was over 100 µM; in assay [2], over 100 µM; in [3] it was over 37.4 µM; in [4], over 100 µM; in assay [5], over 100 µM; in assay [6], over 100 µM. Further, the TGI in assay [7], in assay [8], in assay [9] and in assay [10] was over 100 µM in each case.
In the case of `Cc1cc(NS(=O)(=O)c2ccc(N=Nc3cc(N=Nc4ccc(S(=O)(=O)Nc5cc(C)nc(C)n5)cc4)c4c(NC(=O)C(Cl)Cl)cccc4c3OC(=O)C(Cl)Cl)cc2)nc(C)n1` (tested in a mixture with another compound), the TGI in assay [1] is over 100 µM; in assay [2], 98.3 µM; in assay [3], 70.2 µM; in assay [4], 78.6 µM; in [5] it was 77.6 µM; in assay [6], 51.4 µM. Also, the TGI in [7] is over 100 µM; in [8], 74.9 µM; in assay [9], over 100 µM; in assay [10], 31.6 µM.
Take `COc1cc(O)c2c(O)c3c(c4c2c1[C@]1(C4)C(C)=CCCC1(C)C)[C@H](O)[C@@]1(O)CC(=O)C(C(N)=O)=C(O)[C@@]1(O)C3=O`: the TGI in assay [1] is 1.76 µM; in assay [2], 1.81 µM; in assay [3], 1.58 µM; in assay [4] it was 0.972 µM; in [5], 1.07 µM; in [6], 1.95 µM. The TGI was determined as 1.3 µM in [7], 0.24 µM in assay [8], 1.52 µM in [9] and 1.24 µM in assay [10].
